Source: patent US20230084927A1, “GLUCOSE UPTAKE INHIBITORS AND USES THEREOF” (METABOMED LTD., priority 2019, published 2023)

Key:
[1] = tested on: SDH-KO-HRAS cells (SDHB-deficient); test: Cellular / differential toxicity assay (CellTiter-Glo, 3 days); format: cell-based, murine; settings: Mus musculus, 72 h, toxicity, SDH-KO cells, 3 days, CellTiter-Glo; read-out: EC50 (uM) SDH-KO-HTAS-C17
Protocol: (§1) Identification of compounds that target specifically SDH-deficient cells was done by screening a library of small-molecule by using a differential toxicity screen with SDHB-proficient vs. SDHB-deficient cells (the […] cells were described in Cardaci 2015).
(§2) Cells Used for the Differential Assays: SDH-WT; SDH-KO-HRAS
(§3) Cell Culture Conditions: • Medium: DMEM-F12 medium+1 mM Glutamine+3% FBS • Plates: 96 well plate—Black, clear flat bottom • Incubation time: 3 days • Compound concentration: 10 point dilution starting from 10 uM to 0.0065 uM or a lower range when needed. • Viability assay at the end of incubation: Celltiter-Glo (CTG) from Promega.
(§4) Protocol: • Day 1: Plate cells in 96 well plate together with the appropriate concentration of compound.
(§5) Incubate for 3 days at 37° C. in 5% CO2 tissue culture incubator. • Day 4: Check viability of cells by adding CTG reagent and read luminescence in plate reader
(§6) SDH-WT and SDH-KO cells were grown in DMEM F12 supplemented with 1 mM Glutamine+3% FBS were treated with different concentrations of the indicated compounds in FIG. 11. Cell viability was determined 72 hours later by CellTiter Glue reagent (Promega), the luminescence was measured with ClarioStar reader (BMG) and the EC50s were calculated by Prism.
as §6, with “compounds.” for “compounds in FIG. 11.”
(§7) The cells were grown in DMEM F12 supplemented with 1 mM Glutamine+3% FBS were treated with different concentrations of the indicated compounds. Cell viability was determined 72 hours later by CellTiter Glue reagent (Promega), the luminescence was measured with ClarioStar reader (BMG) and the EC50s were calculated by Prism. Murine SDHB-WT/KO, HRAS transformed isogenic pair (FIG. 12A); UOK269, Human Tumor-derived SDHB-deficient RCC in their WT counterpart with re-expression of SDHB (FIG. 12B); and ACHN, RCC cells, and their SDHB-KO (SDHB CRISPRed out) isogenic cells (FIG. 12C).

SDH-WT cells = test: as above; format: cell-based, murine; settings: Mus musculus, 72 h, toxicity, SDH-WT cells, 3 days, CellTiter-Glo; read-out: EC50 (uM) SDH-WT
Protocol: as §1, §2, §3, §4, §5, §6
as §6, with “compounds.” for “compounds in FIG. 11.”
as §7

Structure (SMILES) | EC50 [1] [µM] | EC50 (SDH-WT cells) [µM]
COc1ccc(CCN(C)c2ncnc3c2sc2nc4c(cc23)COC(C)(C)C4)cc1F [Compound 100] | 3 to 10 | > 10
CCOC1CCc2nc3sc4c(NCCc5ccc(OC)c(F)c5)ncnc4c3cc2C1 (centres unmarked) [Compound 101] | > 10 | > 10
COc1cc(CCNc2ncnc3c2sc2nc4c(cc23)COC(C)(C)C4)cc(OC)c1 [Compound 102] | 3 to 10 | > 10
COc1cccc(CCNc2ncnc3c2sc2nc4c(cc23)COC(C)(C)C4)c1OC [Compound 103] | > 10 | > 10
COc1ccc(CCNc2ncnc3c2sc2nc(C=C(C)C)c(CCl)cc23)cc1F [Compound 104] | 1 to 3 | 3 to 10
COc1ccc(C2CCN(c3ncnc4c3sc3nc5c(cc34)COC(C)(C)C5)C2)cc1F (centres unmarked) [Compound 105] | 3 to 10 | 3 to 10
COc1ccc(CCNc2ncnc3c2sc2nc4c(cc23)CN(C)CC4)cc1F [Compound 106, N-(3-Fluoro-4-methoxyphenethyl)-9-methyl-7,8,9,10-tetrahydropyrimido[4′,5′:4,5]-thieno[2,3-b][1,6]naphthyridin-4-amine] | 3 to 10 | 3 to 10
COc1ccc(CCNc2ncnc3c2sc2nc4c(cc23)CCC4)cc1F [Compound 108, N-(3-Fluoro-4-methoxyphenethyl)-8,9-dihydro-7H-cyclopenta[5′,6′]pyrido-[3′,2′:4,5]thieno[3,2-d]pyrimidin-4-amine] | > 10 | 1 to 3
COc1ccc(CCNc2ncnc3c2sc2nc4c(cc23)CCCC4)cc1F [Compound 109, N-(3-Fluoro-4-methoxyphenethyl)-7,8,9,10-tetrahydropyrimido[4′,5′:4,5]-thieno[2,3-b]quinolin-4-amine] | > 10 | > 10
COc1ccc(CCNc2ncnc3c2sc2ncccc23)cc1F [Compound 110] | 1 to 3 | > 10
CC1(C)Cc2nc3sc4c(NCCC5CCCCO5)ncnc4c3cc2CO1 (centres unmarked) [Compound 112] | 3 to 10 | > 10
CC1(C)Cc2nc3sc4c(NCCc5cccc(C(=O)O)c5)ncnc4c3cc2CO1 [Compound 113] | 3 to 10 | < 1
CCCOc1ccc(CCNc2ncnc3c2sc2nc4c(cc23)COC(C)(C)C4)cc1OC [Compound 115] | 3 to 10 | 1 to 3
CC1(C)Cc2nc3sc4c(NCCc5ccc6[nH]ccc6c5)ncnc4c3cc2CO1 [Compound 116] | 1 to 3 | 3 to 10
COc1cccc(CCNc2ncnc3c2sc2nc4c(cc23)COC(C)(C)C4)c1 [Compound 117] | 3 to 10 | > 10
CC1(C)Cc2nc3sc4c(NCCc5ccc(F)c(F)c5)ncnc4c3cc2CO1 [Compound 120] | > 10 | > 10
COc1cc(CCNc2ncnc3c2sc2nc4c(cc23)COC(C)(C)C4)ccc1F [Compound 121] | 3 to 10 | > 10
COc1ccc(CCNc2ncnc3c2sc2nc4c(cc23)COC(C)(C)C4)cc1F [Compound 122] | < 1 | > 10
CC1(C)Cc2nc3sc4c(NCCc5cncnc5)ncnc4c3cc2CO1 [Compound 123] | > 10 | > 10
CC1(C)Cc2nc3sc4c(NCCc5cccnc5)ncnc4c3cc2CO1 [Compound 124] | > 10 | > 10
COc1ccc(CCNc2ncnc3c4c(sc23)=NC2CC(C)(C)OCC2C=4)c(OC)c1 (centres unmarked) [Compound 125] | 1 to 3 | > 10
COc1ccc(CCNc2ncnc3c2sc2ncccc23)cc1OC [Compound 126] | 1 to 3 | 3 to 10
CC1(C)Cc2nc3sc4c(NCCc5ccncc5)ncnc4c3cc2CO1 [Compound 127] | > 10 | > 10
COc1ccccc1CCNc1ncnc2c1sc1nc3c(cc12)COC(C)(C)C3 [Compound 128] | 3 to 10 | 3 to 10
COc1ccc(CCNc2ncnc3c2sc2nc4c(cc23)COC(C)(C)C4)cc1 [Compound 129] | < 1 | > 10
COC(=O)c1ccc(CCNc2ncnc3c2sc2nc4c(cc23)COC(C)(C)C4)cc1 [Compound 130] | > 10 | > 10
CC1(C)Cc2nc3sc4c(NCCc5ccc6c(c5)OCCO6)ncnc4c3cc2CO1 [Compound 131] | > 10 | > 10
COc1ccc(Nc2ncnc3c2sc2nc4c(cc23)COC(C)(C)C4)cc1OC [Compound 132] | > 10 | > 10

Structure (SMILES) | EC50 [1] [µM] | EC50 (SDH-WT cells) [µM]
CC1(C)Cc2nc3sc4c(NCCc5ccccn5)ncnc4c3cc2CO1 [Compound 133] | 3 to 10 | > 10
CC(C)Nc1ncnc2c1sc1nc3c(cc12)COC(C)(C)C3 [Compound 134] | > 10 | > 10
CC1(C)Cc2nc3sc4c(NCc5ccccc5)ncnc4c3cc2CO1 [Compound 135] | > 10 | > 10
CC1(C)Cc2nc3sc4c(N5CCNCC5)ncnc4c3cc2CO1 [Compound 136] | > 10 | > 10
CC1(C)Cc2nc3sc4c(N5CCOCC5)ncnc4c3cc2CO1 [Compound 137] | > 10 | > 10
CC1(C)Cc2nc3sc4c(N5CCCCC5)ncnc4c3cc2CO1 [Compound 138] | > 10 | > 10
CC1(C)Cc2nc3sc4c(NCCc5ccc(O)c(F)c5)ncnc4c3cc2CO1 [Compound 140] | 1 to 3 | 3 to 10
CC1(C)Cc2nc3sc4c(NCCc5ccc(NC(N)=O)cc5)ncnc4c3cc2CO1 [Compound 141] | < 1 | > 10
CNC(=O)c1ccc(CCNc2ncnc3c2sc2nc4c(cc23)COC(C)(C)C4)cc1 [Compound 142] | < 1 | 3 to 10
CC1(C)Cc2nc3sc4c(NCCc5ccc(OC(N)=O)cc5)ncnc4c3cc2CO1 [Compound 143] | < 1 | > 10
CC1(C)Cc2nc3sc4c(NCCc5ccc(C(N)=O)cc5)ncnc4c3cc2CO1 [Compound 144] | < 1 | > 10
CN(c1ccc(CCNc2ncnc3c2sc2nc4c(cc23)COC(C)(C)C4)cc1)S(C)(=O)=O [Compound 146] | 3 to 10 | > 10
CC1(C)Cc2nc3sc4c(NCCc5ccc(-c6ncco6)cc5)ncnc4c3cc2CO1 [Compound 147] | < 1 | 3 to 10
CC1(C)Cc2nc3sc4c(NCCc5ccc(-c6cncs6)cc5)ncnc4c3cc2CO1 [Compound 148] | < 1 | > 10
CC1(C)Cc2nc3sc4c(NCCc5ccc(-c6cnco6)cc5)ncnc4c3cc2CO1 [Compound 149] | > 10 | > 10
CN(C)C(=O)c1ccc(CCNc2ncnc3c2sc2nc4c(cc23)COC(C)(C)C4)cc1 [Compound 150] | 1 to 3 | > 10
CC1(C)Cc2nc3sc4c(NCCc5ccc(N)cc5)ncnc4c3cc2CO1 [Compound 151] | < 1 | 3 to 10
CC1(C)Cc2nc3sc4c(NCCc5ccc(NS(C)(=O)=O)cc5)ncnc4c3cc2CO1 [Compound 152] | 3 to 10 | 3 to 10
COc1ccc(CCOc2ncnc3c2sc2nc4c(cc23)COC(C)(C)C4)cc1F [Compound 153] | > 10 | > 10
CC1(C)Cc2nc3sc4c(NCCc5ccc(O)cc5)ncnc4c3cc2CO1 [Compound 154] | < 1 | 3 to 10
CC1(C)Cc2nc3sc4c(NCCc5ccc(N6CCCC6=O)cc5)ncnc4c3cc2CO1 [Compound 156] | 1 to 3 | > 10
CC1(C)Cc2nc3sc4c(NCCc5ccc(OS(C)(=O)=O)cc5)ncnc4c3cc2CO1 [Compound 157] | > 10 | > 10
CC(=O)N(C)c1ccc(CCNc2ncnc3c2sc2nc4c(cc23)COC(C)(C)C4)cc1 [Compound 158] | < 1 | > 10
CC1(C)Cc2nc3sc4c(NCCc5ccc(C(=O)O)cc5)ncnc4c3cc2CO1 [Compound 159] | > 10 | > 10
COc1ccc(CCN(C(C)=O)c2ncnc3c2sc2nc4c(cc23)COC(C)(C)C4)cc1F [Compound 160] | > 10 | > 10
COc1ccc(CCNc2ncnc3c2sc2nc4c(cc23)COC(C)(C)C4)cc1C(F)(F)F [Compound 161] | 3 to 10 | 3 to 10
COc1cccc(OC)c1CCNc1ncnc2c1sc1nc3c(cc12)COC(C)(C)C3 [Compound 162] | < 1 | < 1
